Results on 7 compounds are retold here after PubChem BioAssay AID624129 (Sanford-Burnham Center for Chemical Genomics, 2012).

Common to all, as to assay: CXCR6 receptor antagonists, dose response, cell-based, beta-arrestin, DiscoveRx, APJ panel, uHTS hits (AID 624129)
For assay [1], the target named is Apelin receptor (Homo sapiens) (UniProt P35414). The note with it: CXCR6 beta-arrestin (DiscoveRx) antagonist cell assay, APJ.
In assay [2] the target is Beta-galactosidase (Escherichia coli) (UniProt Q8VNN2). The note with it: CXCR6 beta-arrestin (DiscoveRx) antagonist cell assay, b-galactosidase.
Chain of Beta-galactosidase (Escherichia coli) (Q8VNN2 whole entry, looked up): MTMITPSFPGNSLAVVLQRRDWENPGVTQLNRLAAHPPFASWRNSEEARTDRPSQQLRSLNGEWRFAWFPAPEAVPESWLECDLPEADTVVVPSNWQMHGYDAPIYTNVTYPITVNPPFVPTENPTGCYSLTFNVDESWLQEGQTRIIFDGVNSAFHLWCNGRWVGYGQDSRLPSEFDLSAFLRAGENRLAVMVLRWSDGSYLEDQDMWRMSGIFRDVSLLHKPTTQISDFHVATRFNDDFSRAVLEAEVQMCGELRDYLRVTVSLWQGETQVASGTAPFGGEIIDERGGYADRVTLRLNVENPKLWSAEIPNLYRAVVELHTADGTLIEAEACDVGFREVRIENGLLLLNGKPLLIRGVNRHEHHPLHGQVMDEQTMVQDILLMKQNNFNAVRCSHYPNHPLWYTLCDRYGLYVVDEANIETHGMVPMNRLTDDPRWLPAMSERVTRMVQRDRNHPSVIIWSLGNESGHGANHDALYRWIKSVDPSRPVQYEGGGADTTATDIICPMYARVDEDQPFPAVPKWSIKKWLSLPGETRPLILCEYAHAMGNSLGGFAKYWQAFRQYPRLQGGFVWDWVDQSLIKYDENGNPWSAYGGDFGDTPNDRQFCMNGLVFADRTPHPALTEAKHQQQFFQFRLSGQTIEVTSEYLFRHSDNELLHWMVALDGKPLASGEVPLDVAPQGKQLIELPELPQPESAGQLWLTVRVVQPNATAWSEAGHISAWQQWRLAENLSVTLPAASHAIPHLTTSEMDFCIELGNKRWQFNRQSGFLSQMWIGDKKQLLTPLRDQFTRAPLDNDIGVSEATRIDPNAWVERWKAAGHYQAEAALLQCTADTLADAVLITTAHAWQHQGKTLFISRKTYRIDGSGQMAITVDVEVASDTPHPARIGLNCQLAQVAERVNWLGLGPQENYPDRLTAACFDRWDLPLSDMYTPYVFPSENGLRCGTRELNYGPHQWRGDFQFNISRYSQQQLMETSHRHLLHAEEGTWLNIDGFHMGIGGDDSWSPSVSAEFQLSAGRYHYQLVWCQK
Assay [3] addresses C-C chemokine receptor type 6 (Homo sapiens) (UniProt P51684). The note with it: CXCR6 beta-arrestin (DiscoveRx) antagonist cell assay.
In assay [4] the target is C-X-C chemokine receptor type 6 (Homo sapiens) (UniProt O00574). The note with it: CXCR6 beta-arrestin (DiscoveRx) antagonist cell assay.
Chain of C-X-C chemokine receptor type 6 (Homo sapiens) (O00574 whole entry, looked up): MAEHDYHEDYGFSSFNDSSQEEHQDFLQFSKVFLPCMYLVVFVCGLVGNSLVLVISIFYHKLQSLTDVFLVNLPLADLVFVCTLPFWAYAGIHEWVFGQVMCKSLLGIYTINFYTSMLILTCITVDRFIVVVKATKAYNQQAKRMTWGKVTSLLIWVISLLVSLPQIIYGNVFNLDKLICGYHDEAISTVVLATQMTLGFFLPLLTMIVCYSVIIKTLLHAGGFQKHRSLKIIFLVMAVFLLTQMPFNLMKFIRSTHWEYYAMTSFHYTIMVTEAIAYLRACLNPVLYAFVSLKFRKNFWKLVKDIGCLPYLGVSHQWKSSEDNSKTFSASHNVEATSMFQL
Where [5] appears, read: dose range 1, mean IC50 across replicates.
The mark [6] stands for this setting: CCR6, dose range 1, mean IC50 across replicates.
Setting [7] is: CXCR6, dose range 1, mean IC50 across replicates.

Activity calls are given as the source filed them. How the calls were made is not given here. Where only a bound is given, the exact number is not on record here.

Regarding `COc1cc(/C=C/c2ccc3c(Br)cc(Br)c(O)c3n2)ccc1O`, the IC50 (usually the concentration that gives 50% inhibition) in assay [1] (dose range 1) is 20.3 µM; in assay [1] (setting [5]), 23.7 µM; in assay [1] (run 2, dose range 1), 18.8 µM; in assay [1] (run 3, dose range 1), 32.2 µM; in assay [2] (dose range 1), > 80 µM (inactive); in assay [2] (setting [5]), greater than 80 µM. Further, the IC50 in assay [3] (CCR6, dose range 1) was 12.6 µM; in assay [3] (setting [6]), 12.1 µM; in assay [3] (CCR6, run 2, dose range 1) it was 11.6 µM; in assay [4] (setting [7]), 12.5 µM; in assay [4] (CXCR6, run 1, dose range 2) it was 8.69 µM; in assay [4] (CXCR6, run 2, dose range 1), 11.8 µM. The same compound gave an IC50 in assay [4] (CXCR6, run 2, dose range 2) of 12.5 µM. In addition, the IC50 entry in assay [4] (CXCR6, dose range 1) was “inactive”.

On to `COc1ccc(C[C@@H]2OC3(C=CC(=O)C=C3)O[C@H]2Cc2ccc(OC)cc2)cc1`, for which the concentration for half-maximal inhibition (IC50) in assay [1] (dose range 1) is 8.04 µM; in assay [1] (setting [5]), 7.02 µM; in assay [1] (run 2, dose range 1) it was 6.89 µM; in assay [1] (run 3, dose range 1) it was 6.14 µM; in assay [2] (dose range 1), > 80 µM (inactive); in assay [2] (setting [5]), greater than 80 µM. The IC50 in assay [3] (CCR6, dose range 1) is 3.92 µM; in assay [3] (setting [6]), 3.98 µM; in assay [3] (CCR6, run 2, dose range 1), 4.05 µM; in assay [4] (CXCR6, dose range 1), 5.57 µM; in assay [4] (setting [7]), 5.59 µM; in assay [4] (CXCR6, run 1, dose range 2), 5.41 µM. Further, the IC50 in assay [4] (CXCR6, run 2, dose range 1) was 4.23 µM; in assay [4] (CXCR6, run 2, dose range 2) it was 7.14 µM.

On to `S=C(N/N=C/c1ccccc1)N1CCOCC1`, for which the IC50 in assay [1] (dose range 1) is 6.85 µM; in assay [1] (setting [5]), 7 µM; in assay [1] (run 2, dose range 1), 7.06 µM; in assay [1] (run 3, dose range 1), 7.08 µM; in assay [2] (dose range 1) it was > 80 µM (inactive); in assay [2] (setting [5]) it was greater than 80 µM. Moreover, the IC50 in assay [3] (CCR6, dose range 1) was 5.59 µM; in assay [3] (setting [6]), 6.34 µM; in assay [3] (CCR6, run 2, dose range 1) it was 7.09 µM; in assay [4] (CXCR6, dose range 1) it was 7.03 µM; in assay [4] (setting [7]), 6.19 µM; in assay [4] (CXCR6, run 1, dose range 2), 4.47 µM. In addition, the IC50 in assay [4] (CXCR6, run 2, dose range 1) was found to be 8.46 µM; in assay [4] (CXCR6, run 2, dose range 2) it was 4.81 µM.

As to `COc1ccc(OC)c2sc(N(CCCN(C)C)C(=O)CCS(=O)(=O)c3ccccc3)nc12`, the IC50 in assay [1] (dose range 1) was 21.7 µM; in assay [1] (setting [5]) it was 19.6 µM; in assay [1] (run 2, dose range 1) it was 18.2 µM; in assay [1] (run 3, dose range 1) it was 19 µM; in assay [2] (dose range 1) it was > 80 µM (inactive); in assay [2] (setting [5]), greater than 80 µM. The IC50 is 10.4 µM in assay [3] (CCR6, dose range 1); 11.3 µM in assay [3] (setting [6]); 12.3 µM in assay [3] (CCR6, run 2, dose range 1); 12.5 µM in assay [4] (setting [7]); 10.6 µM in assay [4] (CXCR6, run 2, dose range 1). In assay [4] (CXCR6, dose range 1), the IC50 entry was “inactive”. In addition, in assay [4] (CXCR6, run 1, dose range 2, at 80 µM (top of the series)), the inhibition (in general, the drop in the measured response relative to a control, in per cent) came out at 114%.

For the compound `O=C1C(Cc2ccccc2)Nc2ncnc(N3CCN(c4ccccc4)CC3)c2N1Cc1ccc(Br)cc1` (configuration not stated), the half-inhibitory concentration (IC50) in assay [1] (dose range 1) is 1.2 µM; in assay [1] (setting [5]), 2.26 µM; in assay [1] (run 2, dose range 1), 3.32 µM; in assay [1] (run 3, dose range 1), greater than 80 µM; in assay [2] (dose range 1), > 80 µM (inactive); in assay [2] (setting [5]), greater than 80 µM. In addition, the IC50 is 1.67 µM in assay [3] (CCR6, dose range 1); 1.55 µM in assay [3] (setting [6]); 1.44 µM in assay [3] (CCR6, run 2, dose range 1); 1.37 µM in assay [4] (CXCR6, dose range 1); 1.23 µM in assay [4] (setting [7]); 1.42 µM in assay [4] (CXCR6, run 1, dose range 2). Further, the IC50 was found to be 0.993 µM in assay [4] (CXCR6, run 2, dose range 1) and 1.13 µM in assay [4] (CXCR6, run 2, dose range 2).

In the case of `COc1ccc(C(=O)N/N=C(\C)c2ccccn2)cc1OC`, the concentration for half-maximal inhibition (IC50) in assay [1] (dose range 1) was 1.82 µM; in assay [1] (setting [5]), 2.39 µM; in assay [1] (run 2, dose range 1), 2.48 µM; in assay [1] (run 3, dose range 1), 2.86 µM; in assay [2] (dose range 1), > 80 µM (inactive); in assay [2] (setting [5]), greater than 80 µM. For the same compound, the IC50 in assay [3] (CCR6, dose range 1) is 2.06 µM; in assay [3] (setting [6]), 2.38 µM; in assay [3] (CCR6, run 2, dose range 1), 2.71 µM; in assay [4] (CXCR6, dose range 1), 2.56 µM; in assay [4] (setting [7]), 1.99 µM; in assay [4] (CXCR6, run 1, dose range 2), 1.65 µM. Besides, the half-inhibitory concentration (IC50) amounted to 2.6 µM in assay [4] (CXCR6, run 2, dose range 1) and 1.14 µM in assay [4] (CXCR6, run 2, dose range 2).

For `Cc1cccc(CSc2cccc3cccnc23)c1`, the IC50 is 2.86 µM in assay [1] (dose range 1); 3.95 µM in assay [1] (setting [5]); 4.91 µM in assay [1] (run 2, dose range 1); 4.08 µM in assay [1] (run 3, dose range 1); > 80 µM (inactive) in assay [2] (dose range 1); greater than 80 µM in assay [2] (setting [5]). For the same compound, the IC50 in assay [3] (CCR6, dose range 1) was 3.94 µM; in assay [3] (setting [6]), 4.64 µM; in assay [3] (CCR6, run 2, dose range 1), 5.33 µM; in assay [4] (CXCR6, dose range 1), 3.79 µM; in assay [4] (setting [7]), 3.51 µM; in assay [4] (CXCR6, run 1, dose range 2), 2.78 µM. Also, the IC50 worked out at 4.39 µM in assay [4] (CXCR6, run 2, dose range 1) and 3.09 µM in assay [4] (CXCR6, run 2, dose range 2).
